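Tested at 5 concentrations; 48 h exposure; 96-well plates; endpoints linearly interpolated, else capped at highest concentration. At the GI50, growth is halved. Definition used: TGI = concentration required for complete inhibition of growth.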
Key:
Experiment in all cases: NCI anticancer screen, dose series, 48 h
KM12 colon = tested on: KM12 colon
COLO 205 colon = tested on: COLO 205 colon
SW-620 colon = tested on: SW-620 colon
BT-549 breast = tested on: BT-549 breast
SK-OV-3 ovarian = tested on: SK-OV-3 ovarian
HT29 colon = tested on: HT29 colon
M14 melanoma = tested on: M14 melanoma
HCT-116 colon = tested on: HCT-116 colon
SF-539 CNS = tested on: SF-539 CNS
T-47D breast = tested on: T-47D breast
HS 578T breast = tested on: HS 578T breast
K-562 leukemia = tested on: K-562 leukemia
786-0 renal = tested on: 786-0 renal
MOLT-4 leukemia = tested on: MOLT-4 leukemia
SK-MEL-5 melanoma = tested on: SK-MEL-5 melanoma
SF-295 CNS = tested on: SF-295 CNS
IGROV1 ovarian = tested on: IGROV1 ovarian
LOX IMVI melanoma = tested on: LOX IMVI melanoma
SR leukemia = tested on: SR leukemia
HOP-92 NSCLC = tested on: HOP-92 NSCLC
SK-MEL-28 melanoma = tested on: SK-MEL-28 melanoma
MALME-3M melanoma = tested on: MALME-3M melanoma
PC-3 prostate = tested on: PC-3 prostate
RPMI-8226 leukemia = tested on: RPMI-8226 leukemia
MCF7 breast = tested on: MCF7 breast
ACHN renal = tested on: ACHN renal
NCI-H226 lung = tested on: NCI-H226 lung
UO-31 renal = tested on: UO-31 renal
A549 NSCLC = tested on: A549 NSCLC
UACC-257 melanoma = tested on: UACC-257 melanoma
OVCAR-8 ovarian = tested on: OVCAR-8 ovarian
NCI-H522 lung = tested on: NCI-H522 lung
CCRF-CEM leukemia = tested on: CCRF-CEM leukemia
U251 CNS = tested on: U251 CNS
MDA-MB-435 = tested on: MDA-MB-435
SF-268 CNS = tested on: SF-268 CNS
SN12C renal = tested on: SN12C renal
A498 renal = tested on: A498 renal
SNB-19 CNS = tested on: SNB-19 CNS
HOP-62 NSCLC = tested on: HOP-62 NSCLC
HCC-2998 colon = tested on: HCC-2998 colon
HCT-15 colon = tested on: HCT-15 colon
MDA-MB-231 breast = tested on: MDA-MB-231 breast
SNB-75 CNS = tested on: SNB-75 CNS
HL-60(TB) leukemia = tested on: HL-60(TB) leukemia
UACC-62 melanoma = tested on: UACC-62 melanoma
CAKI-1 renal = tested on: CAKI-1 renal
NCI-H460 lung = tested on: NCI-H460 lung
SK-MEL-2 melanoma = tested on: SK-MEL-2 melanoma
OVCAR-5 ovarian = tested on: OVCAR-5 ovarian
EKVX NSCLC = tested on: EKVX NSCLC
OVCAR-3 ovarian = tested on: OVCAR-3 ovarian
OVCAR-4 ovarian = tested on: OVCAR-4 ovarian
TK-10 renal = tested on: TK-10 renal
NCI/ADR-RES ovarian = tested on: NCI/ADR-RES ovarian
RXF 393 renal = tested on: RXF 393 renal

COc1cccc(C2CC(c3cc(OC)c(OC)c(OC)c3)=NN2)c1 (configuration not stated)
GI50 (KM12 colon): 5.02 µM
TGI (KM12 colon): 20.4 µM
GI50 (COLO 205 colon): 18.7 µM
TGI (COLO 205 colon): 48.8 µM
GI50 (SW-620 colon): 3.05 µM
TGI (SW-620 colon): 11.5 µM
GI50 (BT-549 breast): 3.35 µM
TGI (BT-549 breast): 19.1 µM
GI50 (SK-OV-3 ovarian): 24.1 µM
TGI (SK-OV-3 ovarian): 72.2 µM
GI50 (HT29 colon): 3.2 µM
TGI (HT29 colon): 27.2 µM
GI50 (M14 melanoma): 48.8 µM
TGI (M14 melanoma): > 100 µM
GI50 (HCT-116 colon): 5.31 µM
TGI (HCT-116 colon): 19 µM
GI50 (SF-539 CNS): 5.33 µM
TGI (SF-539 CNS): 21.1 µM
GI50 (T-47D breast): 20.2 µM
TGI (T-47D breast): > 100 µM
GI50 (HS 578T breast): 15.5 µM
TGI (HS 578T breast): 49.4 µM
GI50 (K-562 leukemia): 4.19 µM
TGI (K-562 leukemia): > 100 µM
GI50 (786-0 renal): 13.7 µM
TGI (786-0 renal): 56.4 µM
GI50 (MOLT-4 leukemia): 6.17 µM
TGI (MOLT-4 leukemia): 41.4 µM
GI50 (SK-MEL-5 melanoma): 11.8 µM
TGI (SK-MEL-5 melanoma): 24 µM
GI50 (SF-295 CNS): 9.61 µM
TGI (SF-295 CNS): 38.3 µM
GI50 (IGROV1 ovarian): 2.02 µM
TGI (IGROV1 ovarian): 13.1 µM
GI50 (LOX IMVI melanoma): 9.49 µM
TGI (LOX IMVI melanoma): 21.8 µM
GI50 (SR leukemia): 3.09 µM
TGI (SR leukemia): 14.1 µM
GI50 (HOP-92 NSCLC): 11.9 µM
TGI (HOP-92 NSCLC): 39.2 µM
GI50 (SK-MEL-28 melanoma): 17.8 µM
TGI (SK-MEL-28 melanoma): > 100 µM
GI50 (MALME-3M melanoma): 23.4 µM
TGI (MALME-3M melanoma): > 100 µM
GI50 (PC-3 prostate): 7.26 µM
TGI (PC-3 prostate): 45.9 µM
GI50 (RPMI-8226 leukemia): 5.18 µM
TGI (RPMI-8226 leukemia): 26 µM
GI50 (MCF7 breast): 3.85 µM
TGI (MCF7 breast): 26.1 µM
GI50 (ACHN renal): 21.7 µM
TGI (ACHN renal): 53 µM
GI50 (NCI-H226 lung): 28.9 µM
TGI (NCI-H226 lung): > 100 µM
GI50 (UO-31 renal): 14.4 µM
TGI (UO-31 renal): 38.8 µM
GI50 (A549 NSCLC): 21.7 µM
TGI (A549 NSCLC): 87.2 µM
GI50 (UACC-257 melanoma): 12.7 µM
TGI (UACC-257 melanoma): 36.4 µM
GI50 (OVCAR-8 ovarian): 13.9 µM
TGI (OVCAR-8 ovarian): 39 µM
GI50 (NCI-H522 lung): 12.8 µM
TGI (NCI-H522 lung): 42.1 µM
GI50 (CCRF-CEM leukemia): 2.91 µM
TGI (CCRF-CEM leukemia): 21.7 µM
GI50 (U251 CNS): 10 µM
TGI (U251 CNS): 22.8 µM
GI50 (MDA-MB-435): 2.79 µM
TGI (MDA-MB-435): 9.39 µM
GI50 (SF-268 CNS): 13.6 µM
TGI (SF-268 CNS): 81.2 µM
GI50 (SN12C renal): 22.7 µM
TGI (SN12C renal): > 100 µM
GI50 (A498 renal): 12.9 µM
TGI (A498 renal): 38.6 µM
GI50 (SNB-19 CNS): 16.8 µM
TGI (SNB-19 CNS): > 100 µM
GI50 (HOP-62 NSCLC): 8.99 µM
TGI (HOP-62 NSCLC): 71.4 µM
GI50 (HCC-2998 colon): 4.78 µM
TGI (HCC-2998 colon): 18.3 µM
GI50 (HCT-15 colon): 10.1 µM
TGI (HCT-15 colon): 23.8 µM
GI50 (MDA-MB-231 breast): 26.2 µM
TGI (MDA-MB-231 breast): > 100 µM
GI50 (SNB-75 CNS): 15.6 µM
TGI (SNB-75 CNS): > 100 µM
GI50 (HL-60(TB) leukemia): 4.08 µM
TGI (HL-60(TB) leukemia): 31.7 µM
GI50 (UACC-62 melanoma): 20.6 µM
TGI (UACC-62 melanoma): > 100 µM
GI50 (CAKI-1 renal): 14.7 µM
TGI (CAKI-1 renal): 50.5 µM
GI50 (NCI-H460 lung): 13.3 µM
TGI (NCI-H460 lung): 35.4 µM
GI50 (SK-MEL-2 melanoma): 13.2 µM
TGI (SK-MEL-2 melanoma): 54.6 µM
GI50 (OVCAR-5 ovarian): 18.4 µM
TGI (OVCAR-5 ovarian): 66.1 µM
GI50 (EKVX NSCLC): 14.5 µM
TGI (EKVX NSCLC): 46.1 µM
GI50 (OVCAR-3 ovarian): 20.2 µM
TGI (OVCAR-3 ovarian): 76.3 µM
GI50 (OVCAR-4 ovarian): 23.5 µM
TGI (OVCAR-4 ovarian): > 100 µM
GI50 (TK-10 renal): 23.7 µM
TGI (TK-10 renal): 85.2 µM
GI50 (NCI/ADR-RES ovarian): 4.55 µM
TGI (NCI/ADR-RES ovarian): 27.4 µM
GI50 (RXF 393 renal): 8.75 µM
TGI (RXF 393 renal): 34 µM
